Laboratory results as given in patent US10902592B2, “Analysis of images of biological material” (Q-linea AB, priority 2016, dated 2021).

Key:
Type in all cases: cell-based
[1] = tested on: E. coli; experiment: Microscopy of E. coli grown in presence of antibiotics (FIGS. 7a-d); conditions: for morphological change of the pathogen: E. coli grown for three hours in presence of the antibiotic, microphotographs
Excerpt: (§1) FIGS. 7a to 7j show the effect of antibiotics on the morphology of various pathogens. The microphotographs in a) to d) show E. coli grown for three hours either a) in absence of any antibiotics, b) and c) in presence of the antibiotic ceftazidime in different concentrations, and d) or in presence of the antibiotic meropenem. It is clear that the morphological change is not only dependent on the type of antibiotics but is also dose dependent. […] The strain of E. coli shown in these Figures is meropenem sensitive. The microphotographs in e) to g) show P.aureginosa grown for three hours either e) in absence of any antibiotics, f) in presence of the antibiotic ceftazidime or g) in presence of the antibiotic meropenem. […] The P.aureginosa strain shown is meropenem sensitive. The microphotographs of h) to j) show P. mirabilis grown for three hours either h) in absence of any antibiotics, i) in presence of the antibiotic ceftazidime or j) in presence of the antibiotic meropenem. […] The P. mirabilis strain shown is meropenem sensitive.

[2] = tested on: P.aureginosa; experiment: Microscopy of P.aureginosa grown in presence of antibiotics (FIGS. 7e-g); conditions: for morphological change of the pathogen: P.aureginosa grown for three hours in presence of the antibiotic, microphotographs
Excerpt: as §1

[3] = tested on: P. mirabilis; experiment: Microscopy of P. mirabilis grown in presence of antibiotics (FIGS. 7h-j); conditions: for morphological change of the pathogen: P. mirabilis grown for three hours in presence of the antibiotic, microphotographs
Excerpt: as §1

Structure (SMILES) | morphological change of the pathogen [1] | sensitivity of the strain shown to the antibiotic ([1]; E. coli strain shown in the Figures) | morphological change of the pathogen [2] | sensitivity of the strain shown to the antibiotic ([2]; P.aureginosa strain shown) | morphological change of the pathogen [3] | sensitivity of the strain shown to the antibiotic ([3]; P. mirabilis strain shown)
C[C@@H](O)[C@H]1C(=O)N2C(C(=O)O)=C(S[C@@H]3CN[C@H](C(=O)N(C)C)C3)[C@H](C)[C@H]12 [meropenem] | “swelling” of the pathogen | sensitive | the same morphological change occurs | sensitive | the same morphological change occurs | sensitive
CC(C)(O/N=C(\C(=O)N[C@@H]1C(=O)N2C(C(=O)[O-])=C(C[n+]3ccccc3)CS[C@H]12)c1csc(N)n1)C(=O)O [ceftazidime] | thread-like change in morphology |  | “cluster threads” instead of individual threads |  | a combination of “swelling” and threads | 
